The values below come from patent US20160287515A1, “REGIMEN AND METHOD FOR TREATMENT OF TYPE 2 DIABETES” (Omniblend Innovation Pty Ltd, priority 2013, published 2016).

The subject of this assay is subject on metformin (type 2 diabetes). Put plainly: Blood glucose response after a standard meal under three treatment regimens (Example 1). Type of assay: in vivo, human. Conditions: control regimen: metformin 500 mg with the standard meal, no pre-meal drink; after overnight fasting. As for the experimental part: This example compares the blood glucose response in a subject on a dosage of metformin of 500 mg (immediate release dosage) taken twice per day using three different treatment regimens after overnight fasting on separate dates.
The three treatment regimens were as follows: • 1. Regimen in accordance with the invention in which a dose of 500 mg mg of metformin as a (immediate release) tablet 30 minutes before a standard meal followed by a standard drink 15 minutes before the standard meal. Blood glucose levels with time are shown in plot 1 of FIG. 1. • 2. Control Regimen in which the metformin medication was administered with the standard meal without the pre-meal drink. Blood glucose levels with time are shown in plot 2 of FIG. 1. • 3. Comparison regimen in which the standard drink was administered 15 minutes before a meal and the metformin medication was administered with the standard meal. Blood glucose levels with time are shown in plot 3 of FIG. 1.
The standard pre-meal drink used in Example 1 was formed of the following composition: • 20 g WPC-80 • 5 g guar gum • 150 ml water
The drink was prepared by mixing the powder with water according to the following procedure: • 20 g of WPC80 (whey protein concentrate) and 5 g of guar gum were mixed together as a powder. […] The lid was removed ready for the participant to consume immediately. […]

As for `CN(C)C(=N)N=C(N)N` [metformin, Metformin], the “post-prandial blood glucose with time (FIG. 1, Plot 2)” value was “significant rise in post-prandial glucose for a period of over 60 minutes”.
